Source: patent publication US11612604B2, “Methods of treating cancer with PLK4 inhibitors” (LUDWIG INSTITUTE FOR CANCER RESEARCH LTD, priority 2017, dated 2023)

Target: T1, PLK4 (Homo sapiens, UniProt O00444)
T1 sequence (O00444 1-970): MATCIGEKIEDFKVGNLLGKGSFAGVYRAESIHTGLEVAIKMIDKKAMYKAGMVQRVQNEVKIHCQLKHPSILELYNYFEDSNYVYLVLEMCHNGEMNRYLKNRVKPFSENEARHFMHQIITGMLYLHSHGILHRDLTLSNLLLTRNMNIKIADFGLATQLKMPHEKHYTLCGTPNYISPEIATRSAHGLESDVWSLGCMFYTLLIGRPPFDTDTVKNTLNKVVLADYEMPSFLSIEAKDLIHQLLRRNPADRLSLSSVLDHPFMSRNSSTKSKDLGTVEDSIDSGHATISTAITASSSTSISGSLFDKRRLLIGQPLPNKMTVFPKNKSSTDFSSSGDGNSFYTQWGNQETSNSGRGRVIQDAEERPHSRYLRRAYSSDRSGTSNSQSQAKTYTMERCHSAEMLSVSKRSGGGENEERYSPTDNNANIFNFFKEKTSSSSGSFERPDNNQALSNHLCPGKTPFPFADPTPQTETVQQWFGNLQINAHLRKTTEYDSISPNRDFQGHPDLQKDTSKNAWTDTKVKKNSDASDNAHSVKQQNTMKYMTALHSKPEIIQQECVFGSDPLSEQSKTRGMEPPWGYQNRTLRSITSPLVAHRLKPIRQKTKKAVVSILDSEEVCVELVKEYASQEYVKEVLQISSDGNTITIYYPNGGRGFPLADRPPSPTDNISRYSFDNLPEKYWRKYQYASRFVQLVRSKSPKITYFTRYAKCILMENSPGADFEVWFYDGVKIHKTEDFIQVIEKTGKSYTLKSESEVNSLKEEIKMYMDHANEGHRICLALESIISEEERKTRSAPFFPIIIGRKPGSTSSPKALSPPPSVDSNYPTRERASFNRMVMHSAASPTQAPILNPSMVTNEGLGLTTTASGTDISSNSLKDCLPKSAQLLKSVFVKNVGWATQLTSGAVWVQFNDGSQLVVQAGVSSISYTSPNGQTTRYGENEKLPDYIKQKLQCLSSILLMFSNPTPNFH
Experiment: Activity (IC50) of the Table 1 compounds as PLK4 inhibitors
Assay type: biochemical
Conditions: Table 1, IC50 class

## COc1c(Nc2cc(C)[nH]n2)nc(Sc2ccc(NC(C)=O)cc2)nc1C1=CCN(C)CC1
  IC50: < 0.1 µM

## COc1c(Nc2cc(C)[nH]n2)nc(Sc2ccc(NC(C)=O)cc2)nc1N1CC=CCC1
  IC50: < 0.1 µM

## COc1c(Nc2cc(C)[nH]n2)nc(Sc2ccc(S(=O)(=O)C(C)(C)c3c(F)c(F)cc(F)c3F)cc2F)nc1N1CCN(C(C)=O)CC1
  IC50: < 0.1 µM

## COc1c(Nc2cc[nH]n2)nc(Sc2ccc(S(=O)(=O)Cc3cccc([N+](=O)[O-])c3F)cc2F)nc1N1CCCCC1
  IC50: < 0.1 µM

## COc1c(Nc2cc(C)[nH]n2)nc(Sc2ccc(S(=O)(=O)Cc3ccccc3-c3ccccc3)cc2)nc1N1CCN(CCN(C)C)CC1
  IC50: < 0.1 µM

## CC(=O)Nc1ccc(Sc2nc(Nc3cc(C)[nH]n3)c(C)c(N3CCC(CCN(C)C)CC3)n2)cc1
  IC50: < 0.1 µM

## CCS(=O)(=O)c1ccc(Sc2nc(Nc3cc(C)[nH]n3)c(OC)c(N3CCN(C)CC3)n2)c(Cl)c1
  IC50: < 0.1 µM

## COc1c(Nc2cc(C)[nH]n2)nc(Sc2ccc(S(=O)(=O)Cc3cccc(C(F)(F)F)c3F)cc2F)nc1N1CCOCC1
  IC50: < 0.1 µM

## COC(=O)CC1CCN(c2nc(Sc3ccc(NC(C)=O)cc3)nc(Nc3cc(C)[nH]n3)c2OC)CC1
  IC50: < 0.1 µM

## COc1c(Nc2cc(C)[nH]n2)nc(Sc2ccc(S(C)(=O)=O)cc2)nc1N1CCN(CCN(C)C)CC1
  IC50: < 0.1 µM

## COc1c(Nc2cc(C)[nH]n2)nc(Sc2ccc(C(=O)Oc3cccc([N+](=O)[O-])c3F)cc2F)nc1N1CCOCC1
  IC50: < 0.1 µM

## COc1c(Nc2cc(C)[nH]n2)nc(Sc2ccc(S(=O)(=O)Cc3ccccc3)cc2)nc1N1CCOCC1
  IC50: < 0.1 µM

## CC(=O)Nc1ccc(Sc2nc(Nc3cc(C)[nH]n3)c(C)c(N(C)C)n2)cc1
  IC50: < 0.1 µM

## COc1c(Nc2cc(C)[nH]n2)nc(Sc2ccc(NC(C)=O)cc2)nc1N1CCN(CC(=O)N(C)C)CC1
  IC50: < 0.1 µM

## COc1c(Nc2cc(C)[nH]n2)nc(Sc2ccc(S(=O)(=O)Cc3ccccc3)cc2)nc1N1CCN(Cc2ccncc2)CC1
  IC50: < 0.1 µM

## COc1c(Nc2cc(C)[nH]n2)nc(Sc2ccc(S(=O)(=O)C(C)(C)c3c(F)c(F)cc(F)c3F)cc2F)nc1N1CCC(NC(C)=O)CC1
  IC50: < 0.1 µM

## CC(=O)Nc1ccc(Sc2nc(Nc3cc(C)[nH]n3)c(C)c(N3CCN(C)CC3)n2)cc1
  IC50: < 0.1 µM

## COc1c(Nc2cc(C)[nH]n2)nc(Sc2ccc(S(=O)(=O)Nc3cccc([N+](=O)[O-])c3)cc2F)nc1N1CCOCC1
  IC50: < 0.1 µM

## Cc1cc(Nc2nc(Sc3ccccc3)nc(N3CCC(O)CC3)c2C)n[nH]1
  IC50: < 0.1 µM

## COc1c(Nc2cc(C)[nH]n2)nc(Sc2ccc(S(=O)(=O)C3(c4cccc([N+](=O)[O-])c4F)CC3)cc2F)nc1N1CCC(C(N)=O)CC1
  IC50: < 0.1 µM

## COc1c(Nc2cc(C)[nH]n2)nc(Sc2ccc(S(=O)(=O)C(C)(C)c3cccc(Cl)c3F)cc2F)nc1N1CCC(CCN(C)C)CC1
  IC50: < 0.1 µM

## CC(=O)Nc1ccc(Sc2nc(Nc3cc(C)[nH]n3)c(C)c(N3CCOC[C@@H]3C)n2)cc1
  IC50: < 0.1 µM

## COCC(=O)N1CCN(c2nc(Sc3ccc(NC(=O)C4CC4)cc3)nc(Nc3cc(C)[nH]n3)c2OC)CC1
  IC50: < 0.1 µM

## COc1cccc(CS(=O)(=O)c2ccc(Sc3nc(Nc4cc(C)[nH]n4)c(OC)c(N4CCN(CCN(C)C)CC4)n3)cc2)c1
  IC50: < 0.1 µM

## COc1c(Nc2cc(C)[nH]n2)nc(Sc2ccc(S(=O)(=O)Cc3ccccc3)cc2)nc1N1CCN(CCN2CCC(O)CC2)CC1
  IC50: < 0.1 µM

## COc1c(Nc2cc(C)[nH]n2)nc(Sc2ccc(S(=O)(=O)Cc3cccc([N+](=O)[O-])c3C#N)cc2)nc1N1CCN(CCN(C)C)CC1
  IC50: < 0.1 µM

## COc1c(Nc2cc(C)[nH]n2)nc(Sc2ccc(S(=O)(=O)CC(C)C)cc2)nc1N1CCN(CCN(C)C)CC1
  IC50: < 0.1 µM

## Cc1cc(Nc2nc(Sc3ccc(NC(=O)C4CC4)cc3)nc(N(C)C)c2C)n[nH]1
  IC50: < 0.1 µM

## COc1c(Nc2cc(C)[nH]n2)nc(Sc2ccc(NC(C)=O)cc2)nc1N1CCN(CCNC(N)=O)CC1
  IC50: < 0.1 µM

## COc1c(Nc2cc(C)[nH]n2)nc(Sc2ccc([S+](C)[O-])cc2)nc1N1CCN(CCN(C)C)CC1 (centres unmarked)
  IC50: < 0.1 µM

## COc1c(Nc2cc(C)[nH]n2)nc(Sc2ccc(S(=O)(=O)Cc3cccc([N+](=O)[O-])c3F)cc2F)nc1N1CCC(CC(N)=O)CC1
  IC50: < 0.1 µM

## CC(=O)Nc1ccc(Sc2nc(Nc3cc(C)[nH]n3)c3c(n2)C2(CC3)CCN(C(=O)C(C)(C)C)CC2)cc1
  IC50: < 0.1 µM

## COc1c(Nc2cc(C)[nH]n2)nc(Sc2ccc(S(=O)(=O)Cc3ccccc3)cc2)nc1N(C)C
  IC50: < 0.1 µM

## CCC(=O)N1CCN(c2nc(Sc3ccc(NC(C)=O)cc3)nc(Nc3cc(C)[nH]n3)c2OC)CC1
  IC50: < 0.1 µM

## CC(=O)Nc1ccc(Sc2nc(Nc3cc(C)[nH]n3)c(C)c(N3CCC(N(C)C)CC3)n2)cc1
  IC50: < 0.1 µM

## COc1c(Cc2cc(C)[nH]n2)nc(Sc2ccc(S(=O)(=O)Cc3cccc(F)c3F)cc2F)nc1N1CCOC[C@@H]1C
  IC50: < 0.1 µM

## COc1c(Nc2cc(C)[nH]n2)nc(Sc2ccc(S(=O)(=O)Cc3cccc(C(N)=O)c3)cc2)nc1N1CCN(CCN(C)C)CC1
  IC50: < 0.1 µM

## COC(=O)Nc1ccc(Sc2nc(Nc3cc(C)[nH]n3)c(C)c(N3CCCCC3)n2)cc1
  IC50: < 0.1 µM

## CCN(C)CCN1CCN(c2nc(Sc3ccc(NC(C)=O)cc3)nc(Nc3cc(C)[nH]n3)c2OC)CC1
  IC50: < 0.1 µM

## COc1c(Nc2cc(C)[nH]n2)nc(Sc2ccc(S(=O)(=O)Cc3ccc([N+](=O)[O-])cc3)cc2)nc1N1CCN(CCN(C)C)CC1
  IC50: < 0.1 µM

## COc1c(Nc2cc(C)[nH]n2)nc(Sc2ccc(S(=O)(=O)Cc3ccccc3)cc2)nc1N1CCC(CCN2C3CCCC2CC3)CC1
  IC50: < 0.1 µM

## COc1c(Nc2cc(C)[nH]n2)nc(Sc2ccc(S(=O)(=O)C(F)c3cccc([N+](=O)[O-])c3F)cc2F)nc1N1CCC(CCN(C)C)CC1 (centres unmarked)
  IC50: < 0.1 µM

## COc1c(Nc2cc(C)[nH]n2)nc(Sc2ccc(NC(C)=O)cc2)nc1N1CCNCC1
  IC50: < 0.1 µM

## COc1c(Nc2cc(C)[nH]n2)nc(Sc2ccc(S(=O)(=O)C3(c4cccc([N+](=O)[O-])c4F)CC3)cc2F)nc1N1CCNCC1
  IC50: < 0.1 µM

## COc1c(Nc2cc(C)[nH]n2)nc(Sc2ccc(S(=O)(=O)Cc3ccccc3)cc2)nc1N1CCO[C@@H](C)C1
  IC50: < 0.1 µM

## CSc1nc(Nc2cc(C)[nH]n2)c(C)c(N2CCN(CCN(C)C)CC2)n1
  IC50: < 0.1 µM

## COCCC(=O)N1CCN(c2nc(Sc3ccc(NC(=O)C4CC4)cc3)nc(Nc3cc(C)[nH]n3)c2OC)CC1
  IC50: < 0.1 µM

## COc1c(Nc2cc(C)[nH]n2)nc(Sc2ccc(NC(C)=O)cc2)nc1N1CCN(CCS(C)(=O)=O)CC1
  IC50: < 0.1 µM

## COc1c(Nc2cc(C)[nH]n2)nc(Sc2ccc(S(=O)(=O)Cc3ccccc3C)cc2)nc1N1CCN(CCN(C)C)CC1
  IC50: < 0.1 µM

## COc1c(CS(=O)(=O)c2ccc(Sc3nc(Nc4cc(C)[nH]n4)c(OC)c(N4CCN(CCN(C)C)CC4)n3)cc2)cccc1[N+](=O)[O-]
  IC50: < 0.1 µM

## Cc1cc(Nc2nc(Sc3ccccc3)nc(N3CCOCC3)c2C)n[nH]1
  IC50: < 0.1 µM

## COc1c(Cc2cc(C)[nH]n2)nc(Sc2ccc(S(C)(=O)=O)cc2F)nc1N1CCOC[C@@H]1C
  IC50: < 0.1 µM

## COc1c(Nc2cc(C)[nH]n2)nc(Sc2ccc(NC(C)=O)cc2)nc1N1CCC(N)CC1
  IC50: < 0.1 µM

## COc1c(Nc2cc(C)[nH]n2)nc(Sc2ccc(S(=O)(=O)Cc3cccc(C)c3)cc2)nc1N1CCN(CCN(C)C)CC1
  IC50: < 0.1 µM

## COc1c(Nc2cc(C)[nH]n2)nc(Sc2ccc(S(C)(=O)=O)cc2F)nc1N1CCC(CCN(C)C)CC1
  IC50: < 0.1 µM

## COc1c(Nc2cc(C)[nH]n2)nc(Sc2ccc(S(=O)(=O)Cc3nccs3)cc2)nc1N1CCN(CCN(C)C)CC1
  IC50: < 0.1 µM
